Source: patent publication US20170348258A1, “3-Amino Benzamide Derivative Serving As B-Lactam Auxiliary Antibiotic, Preparation Method and Use Thereof” (THE HONG KONG POLYTECHNIC UNIVERSITY, priority 2014, published 2017)

Columns and labels:
in vivo = conditions: male, Sprague-Dawley, rat
Description: Compound F332 was further subjected to in vivo pharmacokinetic study. The UPLC-MS/MS system consists of an Acquity Waters UPLC interfaced with triple quadrupole mass spectrometer (Micromass model Quattro Ultima) equipped with an electrospray ionization source in positive mode. Chromatographic separation was done on ACQUITY UPLC BEH C18 […] (2.1×50 mm) column. The mobile phase consists of methanol+0.1% formic acid (solvent B) and Milli-Q water+0.1% formic acid (solvent A). Multiple reaction monitoring (MRM) was set monitoring the transitions for F332 [M+H]^+ at 299>142 m/z. The collision energy, cone voltage, source temperature, desolvation temperature and capillary voltage are 25, 30, 150° C., 350° C. and 3 Kv, respectively. The cone gas and desolvation gas was 150 L/Hr and 600 L/Hr, respectively.
Male Sprague-Dawley (SD) rats (body weight 250-280 g) were obtained from Centralised Animal Facilities, The Hong Kong Polytechnic University. Animals were kept in a temperature and humidity controlled environment with 12 hour light-dark cycle with standard diet and water. Animal experiment protocol was approved by the Animal Subjects Ethics Sub-Committee of The Hong Kong Polytechnic University. Right jugular vein cannulation was done one day in advance of the experiment. Animal were fasted overnight and had free access to water throughout the experiment. F332 was freshly prepared in 5% CremophorEL, 5% ethanol, 90% saline at a concentration of 2 mg/ml. F332 was prepared on the day of use and used for animal study within half an hour. In the current study, F332 was administered through passive oral feeding (oral) and intravenous (IV) injection. Blood samples (approx. 500 μL) were collected in heparinzied tubes (20 units of heparin salt/tube) via jugular vein at 5, 10, 30, 45, 60, 120, 240 and 420 minutes post administration for IV study. As for oral study, plasma samples were collected at 2, 10, 30, 45, 60, 120, 240, 480 and 600 minutes. Blood plasma samples were collected by centrifuged at 16,100 G for 10 minutes. For all blood plasma samples, 3 fold volume of methanol was added for protein precipitation. Supernatant was filtered by a syringe filter before UPLC-MS/MS analysis. Pharmacokinetic parameters in plasma were determined by non-compartmental pharmacokinetics data analysis using Pharmacokinetics Solutions 2.0 software (Summit Research Services, Montrose, Colo., USA). The pharmacokinetic parameters determined include maximal plasma concentration (Cmax), time to reach maximal plasma concentration (Tmax), mean residence time (MRT), absorption/distribution half life (t1/2α), elimination half life (t1/2β), volume of distribution (Vd), systemic clearance (CL) and the area under the concentration-time curve (AUC).

MRSA strain 85 = test: FICI of F332 with antibiotics; type: cell-based, S. aureus
MRSA strain 2490 = test: FICI of F332 with antibiotics; type: cell-based, S. aureus
MRSA strain 3411 = test: FICI of F332 with antibiotics; type: cell-based, S. aureus
MRSA strain 1449 = test: FICI of F332 with antibiotics; type: cell-based, S. aureus
MRSA strain 3332 = test: FICI of F332 with antibiotics; type: cell-based, S. aureus
MRSA strain 774 = test: FICI of F332 with antibiotics; type: cell-based, S. aureus
MRSA strain 1136 = test: FICI of F332 with antibiotics; type: cell-based, S. aureus
[1] = molecular target: T1, B. subtilis FtsZ-eGFP fusion protein (Bacillus subtilis, UniProt P17865); test: Fluorescence microscopy of FtsZ-eGFP localization; type: cell-based; conditions: 3 μM F332, 4 hours
T1 construct: expressed in transfected cells; host or cells: B. subtilis 168 transformed with pFZ-FtsZ-eGFP
Description: The localization of the filamentation in B. subtilis that induced by F332 was performed by fluorescence microscopy using the cell division protein FtsZ identified by a green fluorescent protein. The expression plasmid of the FtsZ-eGFP fusion protein was constructed as follows (the structure of the plasmid was shown in FIG. 10a).
to amplify the eGFP gene fragment, with about 700 base pairs. Two fragments were ligated by overlap extension PCR method and then digested with endonucleases EcoRI and BamHI. They were ligated into the corresponding cleavage site of pFZ2.0 and transformed into E. coli BL21 (DE3) and screened on chloramphenicol plates to obtain the plasmid pFZ-FtsZ-eGFP. The plasmid extracted was transformed into B. subtilis 168 and grown in LB medium containing chloramphenicol. The expression of FtsZ-eGFP gene was observed by adding different concentrations of lactose or IPTG
The B. subtilis shown in FIGS. 10b and 10c was cultured in the absence of F332.
The B. subtilis shown in FIGS. 10d and 10e was cultured in the presence of F332. […] Thus, the expression of the protein was not only at the position where cell division was performed.

[2] = tested on: MRSA strain #1717 (ATCC strain); test: FICI of F332 with antibiotics; type: cell-based, S. aureus

## CCCCCCCCCNc1ccc(F)c(C(N)=O)c1F [Compound F332, 2,6-difluoro-3-(nonylamino)benzamide]
In vivo; iv, 1 mg/kg
  AUC: 1740 ng·h/mL
  AUC(0-t): 699 ng·h/mL
  MRT: 8.08 h
  Vd: 4.81 L/kg
  clearance: 10 mL/min/kg
In vivo; iv, 1 mg/kg, Absorption/distribution half life
  half-life: 0.25 h
In vivo; iv, 1 mg/kg, Elimination half life
  half-life: 5.82 h
In vivo; po, 50 mg/kg
  AUC: 10400 ng·h/mL
  AUC(0-t): 8980 ng·h/mL
  CL (area)/kg: 80 mL/min/kg
  Cmax: 1920 ng/mL
  MRT: 4.82 h
  Tmax: 2 h
  Vd (area)/kg: 20.916 L/kg
  half-life: 3 h
In vivo; po, 50 mg/kg, Absorption/distribution half life
  half-life: 0.35 h
In vivo; po, 50 mg/kg, Bioavailability
  bioavailability: ~12%
MRSA strain 85
  FICI of F332 combined with Amoxicillin: 0.04
  FICI of F332 combined with Cefuroxime: 0.25
  FICI of F332 combined with Cloxacillin: 1.00
  FICI of F332 combined with Meropenem: 4.01
  FICI of F332 combined with Meticillin: 0.50
MRSA strain 2490
  FICI of F332 combined with Amoxicillin: 0.56
  FICI of F332 combined with Cefuroxime: 0.19
  FICI of F332 combined with Cloxacillin: 0.56
  FICI of F332 combined with Meropenem: 2.25
  FICI of F332 combined with Meticillin: 0.25
MRSA strain 3411
  FICI of F332 combined with Amoxicillin: 2.02
  FICI of F332 combined with Cefuroxime: 1.00
  FICI of F332 combined with Cloxacillin: 0.53
  FICI of F332 combined with Meropenem: 3.00
  FICI of F332 combined with Meticillin: 1.02
MRSA strain 1449
  FICI of F332 combined with Amoxicillin: 0.38
  FICI of F332 combined with Cefuroxime: 1.50
  FICI of F332 combined with Cloxacillin: 0.63
  FICI of F332 combined with Meropenem: 33.0
  FICI of F332 combined with Meticillin: 0.75
MRSA strain 3332
  FICI of F332 combined with Amoxicillin: 0.63
  FICI of F332 combined with Cefuroxime: 0.13
  FICI of F332 combined with Cloxacillin: 0.38
  FICI of F332 combined with Meropenem: 2.25
  FICI of F332 combined with Meticillin: 0.28
MRSA strain 774
  FICI of F332 combined with Amoxicillin: 0.03
  FICI of F332 combined with Cefuroxime: 0.01
  FICI of F332 combined with Cloxacillin: 0.50
  FICI of F332 combined with Meropenem: 0.13
  FICI of F332 combined with Meticillin: 0.26
MRSA strain 1136
  FICI of F332 combined with Amoxicillin: 1.03
  FICI of F332 combined with Cefuroxime: 0.13
  FICI of F332 combined with Cloxacillin: 0.38
  FICI of F332 combined with Meropenem: 4.50
  FICI of F332 combined with Meticillin: 0.31
[1]
  localization of FtsZ-eGFP in B. subtilis 168 cells: Green fluorescence appeared in multiple parts of B. subtilis cells
[2]
  FICI of F332 combined with Amoxicillin: 1.06
  FICI of F332 combined with Cefuroxime: 1.13
  FICI of F332 combined with Cloxacillin: 2.50
  FICI of F332 combined with Meropenem: 3.00
  FICI of F332 combined with Meticillin: 1.13
